Article PMC10937556, “Phenolic phytochemistry, in vitro, in silico, in vivo, and mechanistic anti-inflammatory and antioxidant evaluations of Habenaria digitata” (Frontiers in Pharmacology, 2024)

Legend:
[1] = test system: histamine-induced paw edema; assay: Histamine-induced paw edema; conditions: 20 mg/kg, 2nd hour
Procedure: (§1) Employing prostaglandin E2, bradykinin, leukotriene, and histamine induced paw edema assays; the potential anti-inflammatory mechanism of the isolated compound was investigated. […] Sub-planter injections of prostaglandin E2 (0.01 mg/mL) or 10 mg/mL leukotriene or bradykinin (20 mg/mL) or 0.1 mL histamine (1 mg/mL) produced paw edema after 1 h. Each mouse’s paw volume was assessed immediately before and after sub-planter injection of various irritants (inflammatory agents) at 1–5 h.

MDA = assay: In vivo antioxidant: MDA level; parameters: species or system mice; conditions: compound 1 (20 mg)
[2] = test system: leukotriene-induced paw edema; assay: Leukotriene-induced paw edema; conditions: 20 mg/kg
Procedure: as §1

SOD = assay: In vivo antioxidant: SOD activity in brain, heart, liver; parameters: species or system mice; conditions: for SOD activity: D-galactose aging mice
[3] = test system: prostaglandin E2-induced paw edema; assay: Prostaglandin E2-induced paw edema; conditions: 20 mg/kg, 4th hour (maximal)
Procedure: as §1

Cc1cnc(O)nc1O [Compound 1, 5-methylpyrimidine-24,4-diol]
Percentage inhibition of histamine-induced paw edema [1]: 28.12 ± 0.62% | MDA concentration (MDA; brain): 1.15 nmol/mL | MDA concentration (MDA; heart): 0.8 nmol/mg protein | MDA concentration (MDA; liver): 0.4 nmol/mg protein | Percentage inhibition of leukotriene-induced paw edema ([2]; 1 h): 53.00 ± 1.10% | Percentage inhibition of leukotriene-induced paw edema ([2]; 2 h): 59.50 ± 0.92% | Percentage inhibition of leukotriene-induced paw edema ([2]; 3 h): 62.0 ± 0.70% | Percentage inhibition of leukotriene-induced paw edema ([2]; 4 h): 54.84 ± 0.92% | Percentage inhibition of leukotriene-induced paw edema ([2]; 5 h): 41.43 ± 1.10% | SOD activity (SOD; brain, high-dosage group): 95 U/mL | SOD activity (SOD; heart, compound 1 (10 mg) group): 140.0 U/mg proteins | SOD activity (SOD; heart, high-dosage group): 180.0 U/mg proteins | SOD activity (SOD; liver, high-dosage group): 890.0 U/mg protein | SOD activity compared to the model group (SOD; p < 0.05, D-galactose aging mice): higher | Percentage inhibition of prostaglandin E2-induced paw edema [3]: 82.0 ± 0.34%
